Results as given in ChEMBL document CHEMBL3046399, “Microwave assisted synthesis of novel pyrimidine derivatives and investigation of their analgesic and ulcerogenic activity” (Med Chem Res, 2012).

Assays:
[1] = system: Mus musculus; experiment: Analgesic activity in Mus musculus Swiss albino (mouse) assessed as protection against acetic acid-induced writhing response at 20 mg/kg, po administered 30 min prior to acetic acid challenge measured at 0.5 hr relative to control; assay type: functional
[2] = system: Mus musculus; experiment: Analgesic activity in Mus musculus Swiss albino (mouse) assessed as protection against acetic acid-induced writhing response at 20 mg/kg, po administered 30 min prior to acetic acid challenge measured at 1 hr relative to control; assay type: functional
[3] = system: Mus musculus; experiment: Analgesic activity in Mus musculus Swiss albino (mouse) assessed as protection against acetic acid-induced writhing response at 20 mg/kg, po administered 30 min prior to acetic acid challenge measured at 2 hr relative to control; assay type: functional
[4] = system: Mus musculus; experiment: Ulcerogenic activity in Mus musculus Swiss albino (mouse) stomach assessed as decrease in ulcer spots at 60 mg/kg, po after 17 hr by hematoxylin-eosin staining relative to vehicle-treated control; assay type: toxicity, organism-based; set-up: dose 60 mg/kg, route oral; settings: in vivo

Row | Structure (SMILES) | Activity [1] [%] | Activity [2] [%] | Activity [3] [%] | Activity [4]
1 | COc1ccccc1-c1cc(-c2cc3cc(Br)ccc3oc2=O)nc(NCN2CCOCC2)n1 | 41.97 | 36.13 | 37.61 | –
2 | COc1cccc(-c2cc(-c3cc4cc(Br)ccc4oc3=O)nc(NCN3CCOCC3)n2)c1 | 60.62 | 53.41 | 47.42 | –
3 | O=c1oc2ccc(Br)cc2cc1-c1cc(-c2ccc(Cl)cc2Cl)nc(NCN2CCOCC2)n1 | 95.34 | 85.36 | 69.6 | Non-toxic
4 | O=c1oc2ccc(Br)cc2cc1-c1cc(-c2c(Cl)cccc2Cl)nc(NCN2CCOCC2)n1 | 95.34 | 87.96 | 75.26 | –
5 | O=c1oc2ccc(Br)cc2cc1-c1cc(-c2cccc(Cl)c2)nc(NCN2CCCCC2)n1 | 81.87 | 83.25 | 51.53 | –
6 | O=c1oc2ccc(Br)cc2cc1-c1cc(-c2ccc(Cl)cc2)nc(NCN2CCCCC2)n1 | 83.94 | 77.47 | 61.86 | –
7 | O=c1oc2ccc(Br)cc2cc1-c1cc(-c2ccccc2Br)nc(NCN2CCCCC2)n1 | 55.96 | 40.31 | 15.47 | –
8 | O=c1oc2ccc(Br)cc2cc1-c1cc(-c2cccc(Br)c2)nc(NCN2CCCCC2)n1 | 41.97 | 37.7 | 39.16 | –
9 | O=c1oc2ccc(Br)cc2cc1-c1cc(-c2ccc(Br)cc2)nc(NCN2CCCCC2)n1 | 49.74 | 41.88 | 32.47 | –
10 | COc1ccccc1-c1cc(-c2cc3cc(Br)ccc3oc2=O)nc(NCN2CCCCC2)n1 | 77.72 | 65.44 | 33.5 | –
11 | COc1cccc(-c2cc(-c3cc4cc(Br)ccc4oc3=O)nc(NCN3CCCCC3)n2)c1 | 74.09 | 63.87 | 35.05 | –
12 | O=c1oc2ccc(Br)cc2cc1-c1cc(-c2ccc(Cl)cc2Cl)nc(NCN2CCCCC2)n1 | 83.94 | 69.12 | 38.14 | –
13 | O=c1oc2ccc(Br)cc2cc1-c1cc(-c2c(Cl)cccc2Cl)nc(NCN2CCCCC2)n1 | 26.43 | 18.32 | 15.47 | –
14 | O=c1oc2ccc(Br)cc2cc1-c1cc(-c2ccccc2Cl)nc(NCN2CCOCC2)n1 | 97.93 | 87.97 | 64.43 | –
15 | O=c1oc2ccc(Br)cc2cc1-c1cc(-c2cccc(Cl)c2)nc(NCN2CCOCC2)n1 | 69.95 | 62.3 | 40.71 | –
16 | O=c1oc2ccc(Br)cc2cc1-c1cc(-c2ccc(Cl)cc2)nc(NCN2CCOCC2)n1 | 98.45 | 89.54 | 55.68 | –
17 | O=c1oc2ccc(Br)cc2cc1-c1cc(-c2ccccc2Br)nc(NCN2CCOCC2)n1 | 59.59 | 50.27 | 47.94 | –
18 | O=c1oc2ccc(Br)cc2cc1-c1cc(-c2cccc(Br)c2)nc(NCN2CCOCC2)n1 | 52.33 | 45.55 | 47.42 | –
19 | O=c1oc2ccc(Br)cc2cc1-c1cc(-c2ccc(Br)cc2)nc(NCN2CCOCC2)n1 | 61.66 | 51.3 | 46.89 | –
20 | O=c1oc2ccc(Br)cc2cc1-c1cc(-c2ccccc2Cl)nc(NCN2CCCCC2)n1 | 89.64 | 84.83 | 52.06 | –
21 | O=C([O-])Cc1ccccc1Nc1c(Cl)cccc1Cl.[Na+] [DICLOFENAC SODIUM] | 95.87 | 94.25 | 84.53 | –
